Bridge positions count the residues as written; N and C are the ends. Peptide text beside a SMILES is read from it.
Legend:
active TGF-β = experiment: Active TGF-β level in lung tissue, bleomycin (BLM) mouse lung fibrosis model; type: in vivo; settings: single intratracheal dose 3 mg/kg on Day 7, lung 24 h later, BLM model group = 100.00
How it was run: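 Male C57/6J mice (6–8 wk) received intratracheal bleomycin 0.7 USP/kg on Day 1, then a single intratracheal peptide dose of 3 mg/kg on Day 7, with saline for the model group. The value is the ratio of peptide group to model group.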

[1] = test system: mouse lung fibrosis model induced by bleomycin (BLM); experiment: Hydroxyproline (HYP) content / collagen deposition in lung, BLM mouse fibrosis model; type: in vivo; settings: 3 mg/kg intratracheal twice weekly x4 from Day 8, Day 21, BLM model group = 100.00
Procedure: This Example was to evaluate the inhibitory effect of polypeptides on collagen deposition in fibrotic tissues. In this example, 6- to 8-week-old male C57/6J mice weighing 18-20 g were used as subjects for the study. The experimental animals were randomized into groups, eight animals in each group. On the day of modeling (Day 1), a 0.7 USP/kg dose of bleomycin solution was administered via the tracheal route to induce the model. Treatment dosing started on Day 8. Each peptide-treated group received the peptide drug intratracheally at a dosage of 3 mg/kg, administered twice weekly for a total of four doses. The BLM model group received an equal volume of solvent (saline) as a control. The administration procedure followed that described in Example 4. Day 21 was set as the experimental endpoint for assessing the degree of fibrosis in the model.
On Day21, the animals were dissected to collect lung tissues, and after grinding the lung tissues in liquid nitrogen, hydroxyproline (HYP) was extracted from the tissue using acid hydrolysis. HYP is a unique amino acid found in collagen, and the determination of HYP content is an important indicator reflecting the metabolism of collagen tissue and the degree of fibrosis. 1 mL of 6N HCl was added per 100 mg of tissue and thoroughly mixed, followed by hydrolysis at 121° C. for 6 hours. The hydrolysate was centrifuged, and the resulting supernatant, along with a gradient of HYP standard solutions (Sigma, Catalog No. V900395-25G) at different concentrations, was used for HYP content determination. To each well of a 96-well plate, 10 μL of the hydrolysate supernatant was added and dried in an oven at 65° C. 100 μL per well of 1.4% chloramine T oxidizing solution (Sigma, Catalog No. 23270-50G) was added, and incubated at room temperature for 15 minutes. 100 μL per well of Ehrlich's color development solution (Solarbio, Catalog No. G1290) was added and incubated at 65° C. for 30 minutes. The absorbance of each sample well was measured at 560 nm (OD560) using a multifunctional microplate reader (TECAN, model Infinite 200 Pro). The total HYP content in the lung tissue from each experimental group was calculated to determine the reduction percentage of HYP content in the peptide-treated group relative to the model group, and the inhibitory effect of the peptide molecule on collagen deposition at the fibrotic site was assessed.

[2] = test system: human hepatic stellate cells (LX-2); experiment: ECM-related gene expression (RT-qPCR) in TGF-β1-stimulated LX-2 cells, liver fibrosis cell model; type: cell-based; settings: 20 ng/mL TGF-β1 24 h, then 100 μM polypeptide 48 h; for COL I gene expression Mean: blank control 1.00, model group 6.62; for FN gene expression Mean: blank control 1.00, model group 11.38
From the text: This Example was to evaluate the inhibitory effect of polypeptides on the expression of extracellular matrix (ECM)-related genes in a cellular model of liver fibrosis. The experiment utilized human hepatic stellate cells (LX-2), which are the primary source of myofibroblasts in the liver. Upon activation, hepatic stellate cells transform into myofibroblasts, which secrete ECM in live and play a direct role in the development of hepatic fibrosis. Transient stimulation of LX-2 cells with TGF-β1 can initiate a positive feedback regulation of TSP-1-TGF-β1 activation, which continuously enhances myofibroblast characteristics, including ECM production.
This experiment was performed as follows. LX-2 cells (Procell, CL-0560) were stimulated by 20 ng/mL TGF-β1 (Genscript, Catalog No.Z03411) for 24 h, then added 100 μM polypeptide and cultured for 48 h. An equal volume of solvent was added to the model group, and LX-2 cells without any treatment were used as a blank control. After that, LX-2 cells were collected and total RNA was extracted for RT-qPCR to detect the expression of ECM-related genes, EDA-Fibronectin (fibronectin, FN) and Collagen I (COL1). The polypeptides were able to reduce the expressions of FN and COL1 genes in LX-2 and inhibit ECM production.

**Q.** With `C[C@@H]1NC(=O)[C@H](CC(=O)O)NC(=O)[C@H](CCC(N)=O)NC(=O)[C@H]([C@@H](C)O)NC(=O)[C@H](CC(N)=O)NC(=O)[C@H](CC(=O)O)NC(=O)[C@H](CCC(=O)O)NC1=O` [SEQ ID NO: 40, cyclo[Thr-Gln-Asp-Ala-Glu-Asp-Asn]] (cyclo(AEDNTQD)) as the compound, how does the “active TGF-β content in lung tissue, ratio to model group, Mean(%)” value (active TGF-β; 3 mg/kg) read?
**A.** Its value is 68.27%.

**Q.** What about the “HYP content in lung tissue relative to model group, Mean (%)” value [1] of the same compound?
**A.** Its value is 77.88%.

**Q.** `CC(=O)N[C@H](C(=O)N[C@H]1CSSC[C@@H](C(=O)O)NC(=O)[C@H](CC(N)=O)NC(=O)[C@H](CC(=O)O)NC(=O)[C@H](CCC(=O)O)NC(=O)[C@H](C)NC(=O)[C@H](CC(=O)O)NC1=O)[C@@H](C)O` [SEQ ID NO: 43, Ac-Thr-cyclo[Cys-Asp-Ala-Glu-Asp-Asn-Cys]] (Ac-TCDAEDNC-OH; disulfide 2-8) was tested. Which “active TGF-β content in lung tissue, ratio to model group, Mean(%)” value (active TGF-β) did it give?
**A.** Its value is 75.92%.

**Q.** And the “COL I gene expression Mean” value [2]?
**A.** The value was 4.63.

**Q.** What about the “FN gene expression Mean” value [2] of the same compound?
**A.** The value was 5.80.

**Q.** And the “HYP content in lung tissue relative to model group, Mean (%)” value [1]?
**A.** Its value is 72.18%.

**Q.** How did the “active TGF-β content in lung tissue, ratio to model group, Mean(%)” value (active TGF-β) turn out when `CC(=O)N[C@H](C(=O)N[C@H]1CSSC[C@@H](C(N)=O)NC(=O)[C@H](CC(N)=O)NC(=O)[C@H](CC(=O)O)NC(=O)[C@H](CCC(=O)O)NC(=O)[C@H](C)NC(=O)[C@H](CC(=O)O)NC1=O)[C@@H](C)O` [SEQ ID NO: 44, Ac-Thr-cyclo[Cys-Asp-Ala-Glu-Asp-Asn-Cys]-NH2] (Ac-TCDAEDNC-NH2; disulfide 2-8) was run?
**A.** Its value is 81.73%.

**Q.** And the “HYP content in lung tissue relative to model group, Mean (%)” value [1]?
**A.** Its value is 78.25%.

**Q.** What does the source list for `C[C@@H]1NC(=O)[C@H]([C@@H](C)O)NC(=O)[C@H](CC(N)=O)NC(=O)[C@H](CC(=O)O)NC(=O)[C@H](CCC(=O)O)NC(=O)[C@@H]2CCCN2C(=O)[C@H](CC(=O)O)NC(=O)[C@H](CCC(N)=O)NC(=O)[C@H]([C@@H](C)O)NC(=O)[C@H](CO)NC1=O` [SEQ ID NO: 46, cyclo[Thr-Gln-Asp-Pro-Glu-Asp-Asn-Thr-Ala-Ser]] (cyclo(ASTQDPEDNT))?
**A.** active TGF-β content in lung tissue, ratio to model group, Mean(%) (active TGF-β): 79.36%; HYP content in lung tissue relative to model group, Mean (%) [1]: 80.16%

**Q.** What does the source list for “Ac-TQDAEDN-NH2 [SEQ ID NO: 06, Ac-Thr-Gln-Asp-Ala-Glu-Asp-Asn-NH2]”?
**A.** active TGF-β content in lung tissue, ratio to model group, Mean(%) (active TGF-β): 76.76%; COL I gene expression Mean [2]: 4.57; FN gene expression Mean [2]: 5.72; HYP content in lung tissue relative to model group, Mean (%) [1]: 79.51%

**Q.** What does the source list for “Ac-TQDAEDNTASH-NH2 [SEQ ID NO: 33, Ac-Thr-Gln-Asp-Ala-Glu-Asp-Asn-Thr-Ala-Ser-His-NH2]”?
**A.** active TGF-β content in lung tissue, ratio to model group, Mean(%) (active TGF-β): 86.61%; COL I gene expression Mean [2]: 4.49; FN gene expression Mean [2]: 6.80; HYP content in lung tissue relative to model group, Mean (%) [1]: 82.23%

**Q.** With “Ac-TQDAEDPTA-NH2 [SEQ ID NO: 22, Ac-Thr-Gln-Asp-Ala-Glu-Asp-Pro-Thr-Ala-NH2]” as the compound, how does the “active TGF-β content in lung tissue, ratio to model group, Mean(%)” value (active TGF-β) read?
**A.** The value was 82.72%.

**Q.** What about the “COL I gene expression Mean” value [2] of the same compound?
**A.** Its value is 4.63.

**Q.** What about the “FN gene expression Mean” value [2] of the same compound?
**A.** The value was 6.62.

**Q.** And the “HYP content in lung tissue relative to model group, Mean (%)” value [1]?
**A.** Its value is 72.66%.

**Q.** “Ac-TQDAEDPTAS-NH2 [SEQ ID NO: 25, Ac-Thr-Gln-Asp-Ala-Glu-Asp-Pro-Thr-Ala-Ser-NH2]” was tested. Which “active TGF-β content in lung tissue, ratio to model group, Mean(%)” value (active TGF-β) did it give?
**A.** The value was 86.63%.

**Q.** What about the “COL I gene expression Mean” value [2] of the same compound?
**A.** The value was 4.00.

**Q.** What about the “FN gene expression Mean” value [2] of the same compound?
**A.** The value was 6.47.

**Q.** And the “HYP content in lung tissue relative to model group, Mean (%)” value [1]?
**A.** Its value is 77.75%.

**Q.** “Ac-TQDPEDNTAS-NH2 [SEQ ID NO: 26, Ac-Thr-Gln-Asp-Pro-Glu-Asp-Asn-Thr-Ala-Ser-NH2]” was tested. Which “active TGF-β content in lung tissue, ratio to model group, Mean(%)” value (active TGF-β) did it give?
**A.** Its value is 83.44%.

**Q.** What about the “COL I gene expression Mean” value [2] of the same compound?
**A.** Its value is 4.30.

**Q.** What about the “FN gene expression Mean” value [2] of the same compound?
**A.** Its value is 5.79.

**Q.** And the “HYP content in lung tissue relative to model group, Mean (%)” value [1]?
**A.** The value was 72.07%.
